Tests used:
Factor VII = conditions: LNP siRNA systems containing these lipids, hepatocytes in vivo; cited from earlier work
[1] = Double nicking indel formation with sgRNA pairs; type: cell-based; conditions: substitution of Cas9n in double nicking, eukaryotic system
Excerpt: Aspects of the invention relate to the expression of the gene product being decreased or a template polynucleotide being further introduced into the DNA molecule encoding the gene product or an intervening sequence being excised precisely by allowing the two 5′ overhangs to reanneal and ligate or the activity or function of the gene product being altered or the expression of the gene product being increased. In an embodiment of the invention, the gene product is a protein. Only sgRNA pairs creating 5′ overhangs with less than 8 bp overlap between the guide sequences (offset greater than −8 bp) were able to mediate detectable indel formation. […] Nonetheless, a pair of sgRNAs that will generate a 5′ overhang with Cas9n should in principle generate the corresponding 3′ overhang instead, and double nicking. […] Accordingly, in some embodiments, a recombination template is also provided. A recombination template may be a component of another vector as described herein, contained in a separate vector, or provided as a separate polynucleotide. In some embodiments, a recombination template is designed to serve as a template in homologous recombination, such as within or near a target sequence nicked or cleaved by a CRISPR enzyme as a part of a CRISPR complex. […]

Compound | gene silencing potency series (Factor VII) | indel formation with sgRNA pair [1]
1,2-dilinoleyloxy-keto-N,N-dimethyl-3-aminopropane [DLinKDMA] | DLinKC2-DMA>DLinKDMA>DLinDMA>>DLinDAP | –
CCCCC/C=C\C/C=C\CCCCCCCC(=O)OCC(CN(C)C)OC(=O)CCCCCCC/C=C\C/C=C\CCCCC (centres unmarked) [DLinDAP, 1,2-dilineoyl-3-dimethylammonium-propane] | DLinKC2-DMA>DLinKDMA>DLinDMA>>DLinDAP | –
CCCCC/C=C\C/C=C\CCCCCCCCOCC(CN(C)C)OCCCCCCCC/C=C\C/C=C\CCCCC (centres unmarked) [DLinDMA, 1,2-dilinoleyloxy-3-N,N-dimethylaminopropane] | DLinKC2-DMA>DLinKDMA>DLinDMA>>DLinDAP | –
CCCCC/C=C\C/C=C\CCCCCCCCC1(CCCCCCCC/C=C\C/C=C\CCCCC)OCC(CCN(C)C)O1 (centres unmarked) [DLinKC2-DMA, 1,2-dilinoleyl-4-(2-dimethylaminoethyl)-[1,3]-dioxolane] | DLinKC2-DMA>DLinKDMA>DLinDMA>>DLinDAP | –
Cas9H840A: Cas9 with H840A mutation | – | no indel formation is observed

From patent publication US10377998B2, “CRISPR-CAS systems and methods for altering expression of gene products, structural information and inducible modular CAS enzymes” (The Broad Institute, Inc., priority 2013, dated 2019)
